SMILES strings stand for the structures. Entries after “also recorded” stand apart in the source; their conditions may differ.

The test system of experiment [1] is CD3-stimulated CD3+ splenic T cells. The experiment in a line: Seahorse OCR of activated CD3+ splenic T cells with mitochondrial fuel pathway inhibitors. The class given is cell-based, mouse. The settings on record: for maximal respiration: activated Sirt2−/− CD3+ T cells; for maximal respiration (in response of FCCP): activated WT CD3+ T cells. As to the method: Extracellular acidification rate (ECAR) and oxygen consumption rate (OCR) were measured using the Seahorse XF analyzer (Agilent technologies). Glycolysis Stress Test (GST), glycolytic rate assay (GRA) and mitochondrial stress test (MST) were purchased from Agilent technologies and performed according to the kit manufacturer's instructions.
The day of the assay, 2×10^5 activated T cells were plated in Cell-Tak (Corning)-coated XF96 plates in XF media (XF RPMI Medium pH 7.4 containing 2 mM L-glutamine only for GST or supplemented with 10 mM glucose, 2 mM L-glutamine and 1 mM sodium pyruvate for GRA and MST, all from Agilent technologies) via centrifugation to ensure cell attachment. Cells were equilibrated for 1 hr in a non-CO2 incubator before starting the assay.
(§1) To measure the contribution of glycolysis, glutaminolysis and FAO as fuels for mitochondrial metabolism, OCR and ECAR were measured under basal conditions and in response to sequential injections of vehicle, UK5099 (2 μM), BPTES (3 μM) or Etomoxir (4 μM) inhibitors and then 1 μM oligomycin, 1 μM FCCP (Carbonyl cyanide 4-trifluoromethoxyphenylhydrazone) and 0.5 μM rotenone/antimycin A.

The subject of experiment [2] is human CD3+ T cells. Nature of the experiment: IFN-γ ELISPOT on human CD3+ T cells from healthy donors. The class given is cell-based. The settings on record: inhibitor vs vehicle, 48 hr, listed as TM.
Experiment [3] deals with human CD3+ T cells. Nature of the experiment: Seahorse extracellular flux analysis of CD3-stimulated human CD3+ T cells from healthy donors. In kind it is cell-based. The settings on record: anti-CD3 plus inhibitor vs vehicle, 48 hr. How it is done:
(§2) Human peripheral blood mononuclear cells (PBMC) were obtained from healthy donors by density gradient centrifugation using Ficoll-Paque™ PLUS Media (GE Healthcare). CD3^+ lymphocytes were negatively enriched using human Pan T cell isolation Kit™ (Miltenyi Biotec).
Extracellular acidification rates (ECAR) were measured using the Seahorse XF analyzer (Agilent). Glycolysis Stress Test (GST) and glycolytic rate assay (GRA) were performed according to kit manufacturer's instructions.
The day of the assay, 2×10^5 activated T cells were plated in Cell-Tak (Corning)-coated XF96 plates in XF media (XF RPMI Medium pH 7.4 containing 2 mM L-glutamine only for GST or supplemented with 10 mM glucose, 2 mM L-glutamine and 1 mM sodium pyruvate for GRA test, all from Agilent technologies) via centrifugation to ensure cell attachment. Cells were equilibrated for 1 hour in a non-CO2 incubator before starting the assay.
For GST, ECAR was measured under basal conditions and in response to 10 mM glucose, 1 μM oligomycin and 50 mM 2-DG successively to calculate basal glycolytic rate, glycolytic capacity (in response to oligomycin), and glycolytic reserve (glycolytic capacity−basal rate). For GRA, ECAR was measured under basal conditions and in response to 0.5 μM rotenone+0.5 μM antimycin A and 50 mM 2-DG successively to calculate basal glycolysis and compensatory glycolysis (in response to rotenone+antimycin A). Results were normalized to total protein quantified using Pierce™ BCA Protein Assay Kit (ThermoFisher Scientific).
Human peripheral blood mononuclear cells (PBMC) were obtained from healthy donors by density gradient centrifugation using Ficoll-Paque™ PLUS Media (GE Healthcare). CD3^+ lymphocytes were negatively enriched using human Pan T cell isolation Kit™ (Miltenyi Biotec). […].
Extracellular acidification rate (ECAR) and oxygen consumption rate (OCR) were measured using the Seahorse XF analyzer (Agilent technologies). Glycolysis Stress Test (GST), glycolytic rate assay (GRA) and mitochondrial stress test (MST) were purchased from Agilent technologies and performed according to the kit manufacturer's instructions. […]
For GST, ECAR and OCR were measured under basal conditions and in response to 10 mM glucose, 1 μM oligomycin and 50 mM 2-DG successively to calculate basal glycolytic rate, glycolytic capacity (in response to oligomycin), and glycolytic reserve (glycolytic capacity basal rate).
For GRA, ECAR and OCR were measured under basal conditions and in response to 0.5 μM roteone/antimycin A and 50 mM 2-DG successively to calculate basal glycolysis and compensatory glycolysis (in response to rotenone/antimycin A).

The target of experiment [4] is T1, Sirt2 deacetylase activity (Homo sapiens, UniProt Q8IXJ6).
T1 construct: endogenous in cells; host or cells: human CD3+ T cells enriched from PBMC of healthy donors
T1 sequence (Q8IXJ6 1-389): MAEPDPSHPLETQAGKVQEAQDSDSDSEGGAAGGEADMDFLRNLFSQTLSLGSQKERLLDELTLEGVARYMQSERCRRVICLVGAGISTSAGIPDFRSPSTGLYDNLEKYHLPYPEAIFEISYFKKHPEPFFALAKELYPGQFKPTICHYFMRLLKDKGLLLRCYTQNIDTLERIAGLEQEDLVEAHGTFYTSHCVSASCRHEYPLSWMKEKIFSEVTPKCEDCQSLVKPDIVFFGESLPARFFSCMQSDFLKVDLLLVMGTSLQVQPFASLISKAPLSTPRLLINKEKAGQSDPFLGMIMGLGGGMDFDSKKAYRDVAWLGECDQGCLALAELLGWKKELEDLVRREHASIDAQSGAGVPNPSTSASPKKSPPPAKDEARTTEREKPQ
Nature of the experiment: Western blot of acetylated α-tubulin in human CD3+ enriched T cells. The class given is cell-based. The settings on record: 48 hr, listed as TM. How it is done:
as §2
Whole cell lysates were prepared using lysis buffer (Pierce RIPA buffer, ThermoFisher Scientific) supplemented with cOmplete™ Protease Inhibitor Cocktail and PhosSTOP Phosphatase Inhibitor (Roche Applied Science).
Cell lysates (20 ug) or IP samples were loaded onto 10% SDS-PAGE and separated by electrophoresis followed by semi-dry transfer into polyvinylidene fluoride membranes (Immun-Blot PVDF membrane, Bio-Rad) using Trans-Blot Turbo transfer system (Bio-Rad). After transfer, the membranes were blocked at room temperature with Tris-buffered saline (TBS) containing 0.05% Tween-20 (TBST) and 5% (w/v) milk for 1 h and then incubated overnight at 4° C. with a specific primary antibody (indicated below). […] After washing 3 times with TBST, bound antibodies were detected by chemiluminescence using the Pierce™ ECL Western Blotting Substrate and the Super Signal West Femto Maximum Sensitivity Substrate kits (ThermoFisher Scientific). […]

The next experiment deals with Pmel T cells. The experiment in a line: IFN-γ ELISPOT on gp100-stimulated Pmel T cells. In kind it is cell-based, mouse. The settings on record: gp100-stimulated Sirt2KO (Sirt2−/−) Pmel T cells. How it is done: Spleens and/or Lymph nodes (LN) were collected from WT, Sirt2KO, Pmel/WT, Pmel/Sirt2KO mice and processed into single-cell suspensions. CD3^+, CD4^+ and CD8^+ T cells were negatively enriched using Mouse Pan T cell, CD4^+ T cell and CD8^+ T cell isolation Kits™ respectively according to the manufacturers' instructions. The purity of the isolated cells was confirmed by flow cytometry (>95%). Purified T cells were cultured in completed RPMI 1640 medium (ThermoFisher Scientific) supplemented with 10% (vol/vol) Fetal bovine serum (FBS, Biowest) and 1% (vol/vol) penicillin/streptomycin (P/S, Thomas Scientific Inc). […]
The number of IFN-γ producing cells was evaluated in an ELISPOT assay. […] After washing steps and biotinylated anti-IFN-γ antibody (R4-6A2, ThermoFisher Scientific)+Streptavidin-HRP (BD Bioscience) labeling, spots were detected using AEC Substrate Kit (BD Biosciences) and counted using an AID ELISPOT Reader System (Autoimmun Diagnostika GmbH). […]
The number of IFN-γ producing cells was evaluated in an ELISPOT assay. […] After washing steps and successive biotinylated anti-IFN-γ antibody (R4-6A2, Mabtech, Inc.) and Streptavidin-HRP (BD Bioscience) labeling, spots were detected using AEC Substrate Kit (BD Biosciences) and counted using an AID ELISPOT Reader System (Autoimmun Diagnostika GmbH).

In experiment [5] the test system is TILs from B16F10 tumor nodules. Nature of the experiment: Seahorse OCR of TILs freshly isolated from B16F10 tumor nodules with Etomoxir. The class given is cell-based, mouse. As to the method: Lymphocytes from subcutaneous tumors were isolated by dicing the tissues followed by enzymatic digestion in PBS containing collagenase type 4 (2 mg/ml, Worthington Biochemical) and DNase I (0.25 mg/ml, Sigma-Aldrich) for 45 min with occasional shaking at 37° C. Cell suspensions were then twice filtered through 100 μm and 40 μm cell strainers (Thermo Fisher Scientific) to obtain single-cell suspension followed by a PBS wash and red blood cell lysis using RBC Lysis Buffer (Biolegend). TILs were finally isolated by density gradient centrifugation using Percoll (GE Healthcare) and were further purified using CD3c MicroBeads Kit™ (Miltenyi Biotec) according to the manufacturer's instructions. T cell purity was greater than 90%. Fresh TILs were used directly for phenotypic and metabolic analyses or were cultured in complete RPMI medium for functional assays.
as §1

Consider `N#C/C(=C\c1cn(-c2ccccc2)c2ccccc12)C(=O)O` [UK5099], for which, in experiment [1], the maximal respiration entry is on record as “insensitive” and the “maximal respiration (in response of FCCP)” value is on record as “significantly suppressed”.

In the case of `CCCCCCCCCCCCCC(=S)NCCCC[C@H](NC(=O)OCc1ccccc1)C(=O)Nc1ccccc1` [Thiomyristoyl], the “IFN-γ production (effector function)” value in the experiment on human CD3+ T cells [2] is given as “increased; also recorded: augments”. Also, in the experiment with human CD3+ T cells [3], the OxPhos result is listed as “increased”. Further, in the experiment with human CD3+ T cells [3] (listed as TM), the “aerobic glycolysis (ECAR/PER)” value is recorded as “increased; also recorded: augments”. Moreover, in experiment [4], the “capacity to block Sirt2 deacetylase activity, monitored by acetylated α-tubulin levels” value is listed as “confirmed; also recorded: validated”.

As for `CC[C@H]1/C=C/C=C/C[C@@H](C)[C@H](O)[C@@](C)(O)C(=O)[C@@H](C)[C@H](O)[C@@H](C)C(=O)[C@@H](C)[C@H](O)[C@@H](C)/C=C/C(=O)O[C@@H]2[C@H](C)[C@H](CC1)O[C@]1(CC[C@H](C)[C@H](C[C@@H](C)O)O1)[C@H]2C` [oligomycin], in the experiment on Pmel T cells, the IFN-γ release entry is reported as “suppressed”.

With `CCOC(=O)[C@@]1(CCCCCCOc2ccc(Cl)cc2)CO1` [Etomoxir], the maximal respiration result is recorded as “remained resistant” in experiment [5] (Sirt2−/− TILs), “decreases” in experiment [5] (WT TILs) and “insensitive” in experiment [1]. Besides, in experiment [1], the “maximal respiration (in response of FCCP)” value is “significantly suppressed”.

On to `O=C(Cc1ccccc1)Nc1nnc(CCSCCc2nnc(NC(=O)Cc3ccccc3)s2)s1` [BPTES], for which, in experiment [1], the maximal respiration entry is on record as “insensitive” and the “maximal respiration (in response of FCCP)” value is recorded as “significantly suppressed”.

The record behind these values is patent publication US20220017863A1, “SIRT2-ABLATED CHIMERIC T CELLS” (H. Lee Moffitt Cancer Center and Research Institute, Inc., priority 2019, published 2022).
